Measured values: ChEMBL document CHEMBL1127046, “Antitumor agents. 3. Synthesis and biological activity of 4 beta-alkyl derivatives containing hydroxy, amino, and amido groups of 4'-O-demethyl-4-desoxypodophyllotoxin as antitumor agents” (J Med Chem, 1993)

How the values were obtained:
[1] = test system: P388; experiment: Cytotoxicity against P388 leukemia; assay type: functional, cell-based; conditions: Mus musculus
[2] = Inhibition of DNA topoisomerase II from rat liver measured as 50% reduction in the amount of minicircle DNA relative to the control
[3] = target: Tubulin (Bos taurus, UniProt Q6B856+Q862L2+Q862F3); experiment: Drug concentration needed to produce a 50% reduction of bovine brain tubulin polymerization relative to the control
[4] = test system: L1210; experiment: The number of mice survived for 30 days at the dose of 10 (mg/kg/day); assay type: functional, Mus musculus
[5] = test system: L1210; experiment: Antitumor activity in vivo expressed as the percentage increase in life span at the dose of 10 (mg/kg/day); assay type: functional, Mus musculus

| SMILES | IC50 [1] [µM] | IC50 [2] [µM] | IC50 [3] [µM] | Survivors [4] | ILS max [5] [%] |
| --- | --- | --- | --- | --- | --- |
| COc1cc([C@@H]2c3cc4c(cc3[C@@H](CCN(C)C3CCCCC3)C3COC(=O)[C@@H]32)OCO4)cc(OC)c1O.Cl (some centres not stated) | 0.033 | 60.9 | > 167 | – | – |
| COc1cc([C@@H]2c3cc4c(cc3[C@@H](CCN3CCOCC3)C3COC(=O)[C@@H]32)OCO4)cc(OC)c1O.Cl (some centres not stated) | 0.026 | 58.3 | > 167 | 0 | 81 |
| COc1cc([C@@H]2c3cc4c(cc3[C@@H](CC(=O)NCCN3CCOCC3)C3COC(=O)[C@@H]32)OCO4)cc(OC)c1O.Cl (some centres not stated) | 0.22 | – | > 100 | – | – |
| COc1cc([C@@H]2c3cc4c(cc3[C@@H](CCN3CCC[C@@H]3CO)C3COC(=O)[C@@H]32)OCO4)cc(OC)c1O.Cl (some centres not stated) | 0.063 | 112 | > 62 | – | – |
| COc1cc([C@@H]2c3cc4c(cc3[C@@H](CCN(C)N(C)c3ccccc3)C3COC(=O)[C@@H]32)OCO4)cc(OC)c1O (some centres not stated) | > 1 | – | – | – | – |
| COc1cc([C@@H]2c3cc4c(cc3[C@@H](CC(=O)N3CCC(N5CCCCC5)CC3)C3COC(=O)[C@@H]32)OCO4)cc(OC)c1O.Cl (some centres not stated) | 0.0084 | 266 | > 100 | – | – |
| COc1cc([C@@H]2c3cc4c(cc3[C@@H](CCN(C)Cc3ccccc3)C3COC(=O)[C@@H]32)OCO4)cc(OC)c1O.Cl (some centres not stated) | 0.15 | 97.3 | > 167 | 0 | 53 |
| COc1cc([C@@H]2c3cc4c(cc3[C@@H](CC(=O)N(C)CCN(C)C)C3COC(=O)[C@@H]32)OCO4)cc(OC)c1O.Cl (some centres not stated) | 0.032 | 252 | > 100 | – | – |
| COc1cc([C@@H]2c3cc4c(cc3[C@@H](CC(=O)NCCN3CCCCC3)C3COC(=O)[C@@H]32)OCO4)cc(OC)c1O.Cl (some centres not stated) | 3 | 60.6 | > 100 | – | – |
| COc1cc([C@@H]2c3cc4c(cc3[C@@H](CC(=O)NCc3ccncc3)C3COC(=O)[C@@H]32)OCO4)cc(OC)c1O.Cl (some centres not stated) | 2.2 | – | > 100 | – | – |
| COc1cc([C@@H]2c3cc4c(cc3[C@@H](CCN3CCCCC3)C3COC(=O)[C@@H]32)OCO4)cc(OC)c1O.Cl (some centres not stated) | 0.012 | 67.7 | > 167 | – | – |
| COc1cc([C@@H]2c3cc4c(cc3[C@@H](CCN(C)C(CO)CO)C3COC(=O)[C@@H]32)OCO4)cc(OC)c1O.Cl (some centres not stated) | 0.66 | 25.1 | > 167 | – | – |
| COCCN(C)CC[C@@H]1c2cc3c(cc2[C@@H](c2cc(OC)c(O)c(OC)c2)[C@H]2C(=O)OCC12)OCO3.Cl (some centres not stated) | 0.16 | 75.8 | > 100 | – | – |
| COc1cc([C@@H]2c3cc4c(cc3[C@@H](CCCN(C)C)C3COC(=O)[C@@H]32)OCO4)cc(OC)c1O.Cl (some centres not stated) | 0.012 | 73.5 | > 167 | – | – |
